Earlier results as cited in US5932596A, “Imidazoylalkyl substituted with a six membered nitrogen containing nitrogen containing heterocyclic ring” (Schering Corporation, priority 1995, dated 1999).

System: H3 receptors
Details: rat brain; Arrang et al.

SMILES: NCCc1c[nH]cn1 [histamine]
- maximal inhibition of release: approximately 60%
